Drawing on ChEMBL document CHEMBL4342448, “Antcamphorols A-K, Cytotoxic and ROS Scavenging Triterpenoids from Antrodia camphorata” (J Nat Prod, 2020), this text covers Activity and IC50 for 24 compounds.

Data set [1] deals with L02. The experiment in a line: Cytotoxicity against human L02 cells incubated for 24 hrs by MTT assay. As to conditions: l02, 24 h. The class given is cell-based.
Data set [2] relates to SW480. The experiment in a line: Cytotoxicity against human SW480 cells incubated for 24 hrs by MTT assay. It is filed as functional, cell-based. The following applies: SW480, 24 h. In general terms: Formazan colour is commonly taken as a measure of viable cells.
Data set [3] relates to U-251. Description: Cytotoxicity against human U251 cells incubated for 24 hrs by MTT assay. The class given is functional, cell-based. The following applies: U-251, 24 h.
For data set [4], the system named is MCF7. Description: Cytotoxicity against human MCF7 cells incubated for 24 hrs by MTT assay. The class given is functional, cell-based. As to conditions: MCF7, 24 h.
Data set [5] concerns HUVEC. Description: Induction of ROS scavenging activity in HUVEC assessed as reduction in high glucose-induced intracellular ROS level at 20 uM incubated for 6 hrs by DCFH-DA/Hoechst 33342 staining based assay relative to control. It is filed as functional, Homo sapiens. Details: scale not given: the % may be the effect or the level left.
Data set [6] relates to HUVEC. The experiment in a line: Induction of ROS scavenging activity in HUVEC assessed as reduction in high glucose-induced intracellular ROS level at 5 uM incubated for 6 hrs by DCFH-DA/Hoechst 33342 staining based assay relative to control. Set-up: scale not given: the % may be the effect or the level left. It is filed as functional, Homo sapiens.

The structures appear in SMILES notation. Bounds are passed on as bounds.

On to `C=C(CC[C@@H](C(=O)O)[C@H]1C[C@H](O)[C@@]2(C)C3=C(CC[C@]12C)[C@@]1(C)CC[C@H](O)C(C)(C)[C@@H]1CC3)C(C)C` [SULFURENIC ACID], for which the Activity entry in data set [1] is “Non-Toxic”. Also, the IC50 in data set [2], in data set [3] and in data set [4] was more than 100 µM in each case.

As to `C=C(CC[C@@H](C)[C@H]1CC[C@H]2C3=C(C(=O)[C@H](O)[C@]12C)[C@@]1(C)CC[C@@H](O)[C@@H](C)[C@@H]1CC3=O)[C@H](C)C(=O)O`, the Activity result in data set [1] is given as “Non-Toxic”. The IC50 in data set [2], in data set [3] and in data set [4] was more than 100 µM throughout.

Turning to `C=C(CC[C@@H](C(=O)O)[C@H]1CC[C@@]2(C)C3=CC[C@H]4C(C)(C)[C@@H](O)CC[C@]4(C)C3=CC[C@]12C)C(C)C` [DEHYDROEBURICOIC ACID], the Activity result in data set [1] is on record as “Non-Toxic”; in data set [5], 69.8%. For the same compound, the IC50 in data set [2], in data set [3] and in data set [4] was more than 100 µM throughout.

For `C=C(CC[C@@H](C)[C@H]1CC[C@H]2C3=CC[C@H]4[C@H](C)C(=O)CC[C@]4(C)C3=C[C@@H](O)[C@]12C)C(C)C`, the Activity result in data set [1] is recorded as “Non-Toxic”. Further, the IC50 in data set [2], in data set [3] and in data set [4] was more than 100 µM throughout.

For the compound `C=C(CC[C@@H](C(=O)O)[C@H]1CC[C@@]2(C)C3=C(CC[C@]12C)[C@@]1(C)CC[C@H](O)C(C)(C)[C@@H]1CC3)C(C)C` [EBURICOIC ACID], the Activity result in data set [1] is given as “Non-Toxic”. Also, the concentration for half-maximal inhibition (IC50) in data set [2], in data set [3] and in data set [4] was more than 100 µM throughout.

`C/C=C(/CO)CC[C@@H](C)[C@H]1CC[C@H]2C3=C(C(=O)C[C@]12C)[C@@]1(C)CC[C@@H](O)[C@](C)(O)[C@@H]1C[C@@H]3O`: the Activity entry in data set [1] is recorded as “Non-Toxic”. The IC50 (in general, the concentration needed to halve the response being measured) in data set [2] is more than 100 µM; in data set [3] it was 10.4 µM; in data set [4] it was more than 100 µM.

With `CCc1c2c(nc3ccc(OC(=O)N4CCC(N5CCCCC5)CC4)cc13)-c1cc3c(c(=O)n1C2)COC(=O)[C@]3(O)CC` [IRINOTECAN], it took 0.8 µM to reach half-maximal inhibition in data set [4] (IC50).

With `C=C(CC[C@@H](C)[C@H]1CC[C@H]2C3=C(C(=O)C[C@]12C)[C@@]1(C)CCC(=O)[C@@H](C)[C@@H]1C[C@@H]3O)[C@@H](C)C(=O)O`, in data set [1], the Activity result is on record as “Non-Toxic”. The IC50 in data set [2], in data set [3] and in data set [4] was more than 100 µM each time.

In turn, `Cn1nnc2c(C(N)=O)ncn2c1=O` [TEMOZOLOMIDE] showed an IC50 in data set [3] of 36.4 µM.

Consider `C=C(CC[C@@H](C)[C@H]1CC[C@@]2(O)C3=C(C(=O)C[C@]12C)[C@@]1(C)CCC(=O)[C@@H](C)[C@@H]1CC3)C(C)C`, for which, in data set [1], the Activity entry was “Non-Toxic”. Moreover, the IC50 in data set [2], in data set [3] and in data set [4] was more than 100 µM throughout.

As to `C=C(CC[C@@H](C)[C@H]1CC[C@H]2C3=C(C(=O)C[C@]12C)[C@@]1(C)CCC(=O)[C@@H](C)[C@@H]1C[C@H]3O)C(C)C`, the Activity entry in data set [1] is recorded as “Non-Toxic”; in data set [5], 66.7%. In addition, the IC50 in data set [2], in data set [3] and in data set [4] was more than 100 µM throughout.

On to `C/C=C(\CO)CC[C@@H](C)[C@H]1CC[C@H]2C3=C(C(=O)C[C@]12C)[C@@]1(C)CC[C@@H](O)[C@](C)(O)[C@@H]1C[C@@H]3O`, for which, in data set [1], the Activity result was “Non-Toxic”. For the same compound, the IC50 in data set [2] was more than 100 µM; in data set [3], 9.2 µM; in data set [4], more than 100 µM.

As for `C=C(CC[C@@H](C)[C@H]1CC[C@H]2C3=C(C(=O)C[C@]12C)[C@@]1(C)CC[C@@H](O)[C@](C)(O)[C@@H]1C[C@@H]3O)[C@@H](C)C(=O)O`, the Activity result in data set [1] is “Non-Toxic”. Besides, the IC50 in data set [2], in data set [3] and in data set [4] was more than 100 µM each time.

With `C=C(CC[C@@H](C)[C@H]1CC[C@H]2C3=CC[C@H]4[C@H](C)C(=O)CC[C@]4(C)C3=CC[C@]12C)C(C)C`, the Activity result in data set [1] is listed as “Non-Toxic”; in data set [5] it was 63.9%. In addition, the IC50 in data set [2], in data set [3] and in data set [4] was more than 100 µM each time.

Turning to `C=C(CC[C@@H](C(=O)O)[C@H]1C[C@H](O)[C@@]2(C)C3=CC[C@H]4C(C)(C)[C@@H](O)CC[C@]4(C)C3=CC[C@]12C)C(C)C`, the Activity result in data set [1] is listed as “Non-Toxic”. Moreover, the IC50 in data set [2], in data set [3] and in data set [4] was more than 100 µM in each case.

`C=C(CC[C@@H](C)[C@H]1CC[C@H]2C3=C(C(=O)[C@H](O)[C@]12C)[C@@]1(C)CC[C@@H](O)[C@@H](C)[C@@H]1CC3=O)[C@@H](C)C(=O)O`: the Activity result in data set [1] is recorded as “Non-Toxic”; in data set [5] it was 70.5%. In addition, the IC50 in data set [2], in data set [3] and in data set [4] was more than 100 µM each time.

In the case of `C=C(CC[C@@H](C)[C@H]1CC[C@H]2C3=C(C(=O)C[C@]12C)[C@@]1(C)CC[C@@H](O)[C@H](O)[C@@H]1C[C@@H]3O)[C@@H](C)C(=O)O`, the Activity entry in data set [1] is on record as “Non-Toxic”. Further, the IC50 in data set [2], in data set [3] and in data set [4] was more than 100 µM throughout.

Regarding `C=C1CC[C@H](O)C/C1=C/C=C1\CCC[C@]2(C)[C@@H]([C@H](C)CCCC(C)C)CC[C@@H]12` [CHOLECALCIFEROL], the Activity in data set [6] is on record as 65.4%.

As to `CC1=C2C3=C(CC[C@]2(C)[C@@H]([C@H]2CC[C@](CO)(C(C)C)OC2)C1)[C@@]1(C)CC[C@H](O)C(C)(C)[C@@H]1CC3`, the Activity entry in data set [1] was “Non-Toxic”. Moreover, the IC50 in data set [2], in data set [3] and in data set [4] was more than 100 µM in each case.

For the compound `C=C(CC[C@@H](C)[C@H]1CC[C@H]2C3=C(C(=O)C[C@]12C)[C@@]1(C)CC[C@@H](O)[C@H](O)[C@@H]1C[C@@H]3O)[C@H](C)C(=O)O`, in data set [1], the Activity result is “Non-Toxic”. For the same compound, the IC50 in data set [2], in data set [3] and in data set [4] was more than 100 µM each time.

Turning to `C=C(CC[C@@H](C)[C@H]1CC[C@H]2C3=C(C(=O)C[C@]12C)[C@@]1(C)CCC(=O)[C@@H](C)[C@@H]1C[C@@H]3O)[C@H](C)C(=O)O`, the Activity entry in data set [1] is “Non-Toxic”. The IC50 in data set [2], in data set [3] and in data set [4] was more than 100 µM in each case.

For `C=C(CC[C@@H](C)[C@H]1CC[C@H]2C3=CC[C@H]4[C@H](C)C(=O)CC[C@]4(C)C3=C[C@H](O)[C@]12C)C(C)C`, the Activity result in data set [1] is on record as “Non-Toxic”; in data set [5], 69.9%. Moreover, the IC50 in data set [2], in data set [3] and in data set [4] was more than 100 µM in each case.

Take `C=C(CC[C@@H](C)[C@H]1CC[C@H]2C3=CC[C@H]4[C@H](C)[C@@H](O)CC[C@]4(C)C3=C[C@@H](O)[C@]12C)C(C)C`: the Activity entry in data set [1] is recorded as “Non-Toxic”. Moreover, the results for the IC50 in data set [2], in data set [3] and in data set [4] were 16.4 µM, 15.6 µM and 8.1 µM, respectively.

Regarding `C=C(CC[C@@H](C)[C@H]1CC[C@H]2C3=C(C(=O)C[C@]12C)[C@@]1(C)CC[C@@H](O)[C@](C)(O)[C@@H]1C[C@@H]3O)[C@H](C)C(=O)O`, the Activity result in data set [1] was “Non-Toxic”. For the same compound, the IC50 in data set [2], in data set [3] and in data set [4] was more than 100 µM each time.
